Source: publication PMC10706121, “Bioactive Polyketides from the Natural Complex of the Sea Urchin-Associated Fungi Penicillium sajarovii KMM 4718 and Aspergillus protuberus KMM 4747” (International Journal of Molecular Sciences, 2023)
Entries after “also recorded” stand apart in the source; their conditions may differ. Where two headings read alike, the source gives them in different places.

Columns and labels:
[1] = biological target: T1, urease from Canavalia ensiformis (Canavalia ensiformis, UniProt P07374); test: Urease inhibition assay (indophenol method, cell-free); assay type: biochemical; conditions: for effect on urease activity: at concentrations of up to 100 µM
T1 construct: purchased Sigma
T1 sequence (P07374 whole entry, looked up): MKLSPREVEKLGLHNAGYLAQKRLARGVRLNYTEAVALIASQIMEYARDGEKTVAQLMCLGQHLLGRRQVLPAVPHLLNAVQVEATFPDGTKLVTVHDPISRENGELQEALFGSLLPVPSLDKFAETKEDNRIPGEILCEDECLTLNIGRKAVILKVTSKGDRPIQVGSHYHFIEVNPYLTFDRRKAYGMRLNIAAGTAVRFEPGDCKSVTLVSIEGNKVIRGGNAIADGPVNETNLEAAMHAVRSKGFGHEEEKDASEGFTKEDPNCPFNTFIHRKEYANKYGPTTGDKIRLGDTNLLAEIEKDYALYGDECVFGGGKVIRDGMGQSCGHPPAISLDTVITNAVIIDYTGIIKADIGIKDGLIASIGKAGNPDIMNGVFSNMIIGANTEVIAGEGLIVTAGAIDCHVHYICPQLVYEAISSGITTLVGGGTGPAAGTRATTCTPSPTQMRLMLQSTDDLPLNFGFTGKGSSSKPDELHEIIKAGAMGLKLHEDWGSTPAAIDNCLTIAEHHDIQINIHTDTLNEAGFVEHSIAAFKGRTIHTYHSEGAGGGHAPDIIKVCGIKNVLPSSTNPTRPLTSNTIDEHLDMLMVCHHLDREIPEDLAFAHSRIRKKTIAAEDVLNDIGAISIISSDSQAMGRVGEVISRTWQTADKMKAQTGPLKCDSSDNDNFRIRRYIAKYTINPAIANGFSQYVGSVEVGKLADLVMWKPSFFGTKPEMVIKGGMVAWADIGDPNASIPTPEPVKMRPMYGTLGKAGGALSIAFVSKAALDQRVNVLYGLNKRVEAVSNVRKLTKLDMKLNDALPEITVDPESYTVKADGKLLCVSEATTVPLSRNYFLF
Method: A reaction mixture consisting of 25 µL of enzyme solution (urease from Canavalia ensiformis, Sigma, 1U final concentration) and 5 µL of test compounds dissolved in water (10–300.0 µM final concentration) was preincubated at 37 °C for 60 min in 96-well plates. Then, 55 µL of phosphate-buffered solution with […] of urea was added to each well and incubated at 37 °C for 10 min. The urease inhibitory activity was estimated by determining ammonia production using the indophenol method. Briefly, 45 µL of phenol reagent (1% w/v phenol and 0.005% w/v sodium nitroprusside) and 70 µL of alkali reagent (0.5% w/v NaOH and 0.1% active chloride NaClO) were added to each well. The absorbance was measured after 50 min at 630 nm using a MultiskanFS microplate reader (Thermo Scientific Inc., Beverly, MA, USA). All reactions were performed in triplicate in a final volume of 200 µL. The pH was maintained at 7.3–7.5 in all assays. DMSO 5% was used as a positive control.

Candida albicans KMM 455 = test: Antimicrobial activity, inhibition of microbial growth (OD620); assay type: cell-based; conditions: for inhibition at 100 µM: Candida albicans
Method: (§1) The yeast-like fungi of Candida albicans KMM 455 and bacterial strains Staphylococcus aureus ATCC 21027 and Escherichia coli VKPM (B-7935) (Collection of Marine Microorganisms PIBOC FEB RAS) were cultured on solid-medium Mueller Hinton broth with agar (16.0 g/L) in a Petri dish at 37 °C for 24 h.
(§2) The assays were performed in 96-well microplates in appropriate Mueller Hinton broth. Each well contained 90 µL of bacterial or of a yeast-like fungi suspension (10^9 CFU/mL). Then, 10 µL of a compound diluted at concentrations ranging from 1.5 to 100.0 µM using a 2-fold dilution was added (DMSO concentration < 1%). Culture plates were incubated overnight at 37 °C, and the OD620 was measured using a Multiskan FS spectrophotometer (Thermo Scientific Inc., Beverly, MA, USA). The antibiotic gentamicin and antifungal agent nitrofungin were used as positive controls at 1 mg/mL; 1% DMSO in PBS served as a negative control.

[2] = test system: Escherichia coli VKPM (B-7935); test: as above; assay type: cell-based; conditions: for inhibition at 100 µM: Escherichia coli, read-out: Inhibition of Microbial Growth, E. coli
Method: as §1, §2

[3] = test system: Staphylococcus aureus ATCC 21027; test: as above; assay type: cell-based; conditions: for inhibition at 100 µM: Staphylococcus aureus
Method: as §1, §2

[4] = Cell viability assay (MTT), cytotoxic activity; assay type: cell-based, human; conditions: 24 h, MTT; for viability at 24 h, 10 µM / viability at 24 h, 100 µM: percent of control
Method: (§3) The HepG2 and H9c2 cells were cultured in DMEM medium (Biolot, St. Petersburg, Russia) containing 10% fetal bovine serum (Biolot, St. Petersburg, Russia) and 1% penicillin/streptomycin (Biolot, St. Petersburg, Russia) at 37 °C in a humidified atmosphere with 5% (v/v) CO2.
(§4) The HepG2 and H9c2 cells were seeded at concentrations of 5× 10^3 and 3×10^3 cell/well, respectively, and the experiments were started after 24 h. The compounds at concentrations up to 100 µM were added into the wells for 24 h, and the viability of the cells was measured by an MTT (3-(4,5-dimethylthiazol-2-yl)-2,5-diphenyltetrazolium bromide) assay, which was performed according to the manufacturer’s instructions (Sigma-Aldrich, Munich, Germany). All compounds were dissolved with DMSO so that the final concentration of DMSO in the cell culture was not more than 1%. Moreover, DMSO was used as a control. The absorbance of the resulting solution was measured at 570 nm with a microplate reader MultiscanFC (ThermoLabsystems Inc., Beverly, MA, USA). The results are presented as a percent of the control data and calculated IC50.

[5] = test system: normal rat cardiomyocyte H9c2 cells; test: Cell viability assay (MTT), cytotoxic activity; assay type: cell-based; conditions: for decrease of H9c2 cell viability: 100 µM; for IC50: 24 h, MTT, read-out: H9c2 IC50 (cytotoxic effect)
Method: as §3, §4

[6] = test system: S. aureus-infected H9c2 cardiomyocytes; test: Staphylococcus aureus-induced infection of H9c2 cardiomyocytes (in vitro model of infectious myocarditis, MTT); assay type: cell-based, rat; conditions: 1 and 10 µM
Method: The H9c2 cells were seeded at concentrations of 3 × 10^3 cell/well. After 24 h, the cell culture media was changed with an S. aureus bacterial suspension (10^2 CFU/mL) prepared in full DMEM culture media. The investigated compounds at concentrations of 1 and 10 µM were added after 1 h and the cells were incubated for 48 h. The S. aureus suspension with compounds at the same concentrations was used as a control. MTT reagent was added to all wells and formazan production was detected with the microplate reader MultiscanFC (ThermoLabsystems Inc., Beverly, MA, USA). The viability of S. aureus-infected cells was calculated as:Viability, relative units = (OD cells+Sa +comp − OD Sa+comp)/(OD cells+Sa − OD Sa)

[7] = test system: human hepatocarcinoma HepG2 cells; test: Cell viability assay (MTT), cytotoxic activity; assay type: cell-based; conditions: for decrease of HepG2 cell viability: 100 µM; for IC50: 24 h, MTT, read-out: HepG2 IC50 (cytotoxic effect)
Method: as §3, §4

[8] = KMM455, compounds tested at 100 µM, read-out: Inhibition of Microbial Growth, C. albicans
[9] = ATCC21027, compounds tested at 100 µM, read-out: Inhibition of Microbial Growth, S. aureus
[10] = human, HepG2 cells (human hepatocarcinoma), read-out: HepG2 IC50 (cytotoxic effect)
[11] = human, HepG2 hepatocarcinoma cells
[12] = rat, H9c2 cells (normal rat cardiomyocytes), read-out: H9c2 IC50 (cytotoxic effect)
[13] = KMM455, read-out: Inhibition of Microbial Growth, C. albicans
[14] = ATCC21027, read-out: Inhibition of Microbial Growth, S. aureus
[15] = human, read-out: HepG2 Cell Viability
[16] = human, read-out: HepG2 IC50 (cytotoxic effect)
[17] = rat, read-out: H9c2 Cell Viability
[18] = rat, read-out: H9c2 IC50 (cytotoxic effect)

SMILES | IC50 [1] [µM] | effect on urease activity [1] | inhibition at 100 µM (Candida albicans KMM 455; [8]) [%] | inhibition at 100 µM ([2]; compounds tested at 100 µM) [%] | inhibition at 100 µM [3, 9] [%] | IC50 at 24 h [4, 10] [µM] | viability at 24 h, 10 µM [4, 11] [%] | viability at 24 h, 100 µM [4, 11] [%] | viability at 24 h, 10 µM ([4]; rat, H9c2 cardiomyocyte cells) [%] | viability at 24 h, 100 µM ([4]; rat, H9c2 cardiomyocyte cells) [%] | IC50 at 24 h [4, 12] [µM] | decrease of H9c2 cell viability [5] [%] | effect on the viability of S. aureus-infected H9c2 cardiomyocytes [6] | decrease of HepG2 cell viability [7] | other results
COC1=CC(=O)c2c(O)cc(O)cc2[C@@]1(C)O [Compound 1, sajaroketide A] | > 100 | no effect; also recorded: very poor | < 10 | 25.4 ± 1 | 35.1 ± 0.9 | > 100 | 108 ± 3.2 | 107 ± 3.9 | 83.6 ± 4.4 | 65.4 ± 4.8 | > 100 | 34.6 | – | – | –
COC1=CC(=O)c2c(O)cc(OC)cc2[C@@]1(C)O [Compound 2, sajaroketide B] | 98.5 ± 0.8 | – | < 10 | < 10 | < 10 | > 100 | 87.3 ± 4.1 | 76.9 ± 2.1 | 96 ± 1.9 | 79 ± 3.4 | > 100 | 21.0 | did not show any statistical effect | – | Inhibition of Microbial Growth, E. coli ([2]; compounds tested at 100 µM): inactive; Inhibition of Microbial Growth, S. aureus ([3]; compounds tested at 100 µM): inactive
Cc1cc(O)cc2oc(C[C@H](C)O)cc(=O)c12 [Compound 3, (2′S)-7-hydroxy-2-(2′-hydroxypropyl)-5-methylchromone] | > 100 | no effect; also recorded: did not show any effect | < 10 | < 10 | 17.7 ± 0.3 | > 100 | 91.7 ± 1.5 | 101 ± 3.9 | 96.4 ± 2.1 | 74.3 ± 3.2 | > 100 | 25.7 | – | – | –
Cc1cc(O)cc2oc3cc(O)cc(O)c3c(=O)c12 [Compound 5, norlichexanthone] | 15.3 ± 2.1 | – | < 10 | 27.9 ± 3.3 | 20.8 ± 6.5 | ~100 | 88 ± 4.9 | 52.6 ± 3 | 86.3 ± 6.3 | 49 ± 1.6 | ~100 | 51.0 | – | 47.4% | IC50 [7]: > 100 µM; IC50 [5]: 97.4 ± 2.2 µM
COc1cc(O)c2c(=O)c3c(C)cc(O)cc3oc2c1 [Compound 6, griseoxanthone C] | 97.3 ± 1.6 | – | – | – | – | – | – | – | – | – | – | 36.7 | did not show any statistical effect | 72.9% | inhibition at 100 µM (Candida albicans KMM 455; [13]): < 10%; Inhibition of Microbial Growth, C. albicans (Candida albicans KMM 455; compounds tested at 100 µM): did not affect; inhibition at 100 µM [2]: < 10%; inhibition at 100 µM [3, 14]: < 10%; viability at 24 h, 10 µM [4, 15]: 85.7 ± 5.7%; viability at 24 h, 100 µM [4, 15]: 27.1 ± 2.4%; IC50 at 24 h [4, 16]: 64.7 ± 0.8 µM; viability at 24 h, 10 µM [4, 17]: 86 ± 4.8%; viability at 24 h, 100 µM [4, 17]: 63.3 ± 1.4%; IC50 at 24 h [4, 18]: > 100 µM
Cc1cc(O)c(O)c2oc3cc(O)cc(O)c3c(=O)c12 [Compound 7, 1,3,5,6-tetrahydroxy-8-methylxanthone] | 100 | – | 15.4 ± 2.1 | < 10 | < 10 | ~100 | 77.1 ± 1.4 | 57.4 ± 4.2 | 98 ± 0.9 | 52.9 ± 1.5 | ~100 | – | – | 42.6 µM | IC50 [7]: > 100 µM; IC50 [5]: > 100 µM
COC1=CC(=O)C[C@@H](C)[C@]12Oc1c(Cl)c(OC)cc(OC)c1C2=O [Compound 8, griseofulvin, reference compound] | 10.1 ± 0.6 | – | < 10 | 16.8 ± 4.5 | 11.5 ± 4.3 | 77.8 ± 1.3 | 81 ± 2.1 | 39.9 ± 0.7 | 89.8 ± 2.7 | 71.6 ± 3.7 | > 100 | 28.4 | – | 60.1% | –
COC1=CC(=O)C[C@@H](C)[C@]12Oc1c(Cl)c(O)cc(OC)c1C2=O [Compound 9, 6-O-desmethylgriseofulvin] | > 100 | no effect; also recorded: did not show any effect | < 10 | ~23 | ~23 | > 100 | 91.5 ± 6.8 | 84.2 ± 3.2 | 97.4 ± 8.1 | 92.9 ± 3.7 | > 100 | – | – | – | Inhibition of Microbial Growth, E. coli ([2]; compounds tested at 100 µM, 100 µM): 23.4 ± 1.8%
CC1=CC(=O)OCC1 [Compound 11, 5,6-dihydro-4-methyl-2H-pyran-2-one] | 11.4 ± 1 | – | – | – | – | – | – | – | – | – | – | – | did not show any statistical effect | 23.4% | inhibition at 100 µM (Candida albicans KMM 455; [13]): < 10%; Inhibition of Microbial Growth, C. albicans (Candida albicans KMM 455; compounds tested at 100 µM): did not affect; inhibition at 100 µM [2]: < 10%; inhibition at 100 µM [3, 14]: < 10%; viability at 24 h, 10 µM [4, 15]: 87.5 ± 5.3%; viability at 24 h, 100 µM [4, 15]: 76.6 ± 2.4%; IC50 at 24 h [4, 16]: > 100 µM; viability at 24 h, 10 µM [4, 17]: 95.9 ± 0.6%; viability at 24 h, 100 µM [4, 17]: 89 ± 2.9%; IC50 at 24 h [4, 18]: > 100 µM
